In ChEMBL document CHEMBL2417440, “Experimental and structural testing module to analyze paralogue-specificity and affinity in the Hsp90 inhibitors series” (J Med Chem, 2013):
Calls of active or inactive are those of the source. No cut-off for these calls is given here.

How the values were obtained:
[1] = target: T1, Heat shock protein HSP90 (Homo sapiens) (UniProt P07900+P08238); experiment: Binding affinity to HSP90 in human SKBR3 cell lysates at 3 nM up to 24 hrs by fluorescence polarization assay; type: protein assay; conditions: SK-BR-3
Homo sapiens = species on record: Homo sapiens; experiment: Ratio of binding affinity to HASP90 (unknown origin) to TRAP1 (unknown origin)
[2] = target: T2, Heat shock protein HSP 90-beta (Homo sapiens, UniProt P08238)
Endoplasmin [3] = target: T3, Endoplasmin (Canis lupus familiaris, UniProt P41148)
[4] = target: T1, Heat shock protein HSP90 (Homo sapiens); experiment: Binding affinity to HSP90 (unknown origin); type: protein assay
[5] = target: T4, Heat shock protein HSP 90-alpha (Homo sapiens, UniProt P07900)
[6] = target: Endoplasmin (Homo sapiens) (UniProt P14625); experiment: Binding affinity to GRP94 (unknown origin)
[7] = target: T5, Heat shock protein 75 kDa, mitochondrial (Homo sapiens) (UniProt Q12931); experiment: Binding affinity to TRAP1 (unknown origin)
T5 sequence (whole entry): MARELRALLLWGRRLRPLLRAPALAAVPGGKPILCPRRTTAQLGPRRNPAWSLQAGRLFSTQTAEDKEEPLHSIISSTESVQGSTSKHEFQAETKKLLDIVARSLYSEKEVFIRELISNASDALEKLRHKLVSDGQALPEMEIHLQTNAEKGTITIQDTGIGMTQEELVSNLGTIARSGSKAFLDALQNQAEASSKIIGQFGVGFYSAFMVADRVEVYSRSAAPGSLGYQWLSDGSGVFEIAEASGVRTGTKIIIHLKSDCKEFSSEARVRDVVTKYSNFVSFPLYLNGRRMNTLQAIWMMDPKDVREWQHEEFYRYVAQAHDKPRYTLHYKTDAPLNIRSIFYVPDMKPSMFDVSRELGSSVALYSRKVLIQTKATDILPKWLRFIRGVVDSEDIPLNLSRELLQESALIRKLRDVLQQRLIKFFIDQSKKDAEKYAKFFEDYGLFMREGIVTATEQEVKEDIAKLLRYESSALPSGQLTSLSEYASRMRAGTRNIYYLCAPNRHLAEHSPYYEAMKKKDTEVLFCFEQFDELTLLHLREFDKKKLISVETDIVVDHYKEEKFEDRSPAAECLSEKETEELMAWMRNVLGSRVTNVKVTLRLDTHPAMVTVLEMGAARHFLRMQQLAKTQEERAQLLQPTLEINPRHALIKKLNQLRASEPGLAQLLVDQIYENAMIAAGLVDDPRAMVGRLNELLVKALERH

[8] = target: T6, Heat shock protein 75 kDa, mitochondrial (Homo sapiens, UniProt Q12931)
T6 sequence (Q12931 whole entry): T5 sequence (whole entry)

[9] = target: T4, Heat shock protein HSP 90-alpha; experiment: Binding affinity to HSP90alpha (unknown origin) by fluorescence polarization assay; conditions: read-out: Kd(app)
[10] = target: T2, Heat shock protein HSP 90-beta; experiment: Binding affinity to recombinant HSP90beta (unknown origin) by fluorescence polarization assay; conditions: read-out: Kd(app)
[11] = target: T6, Heat shock protein 75 kDa, mitochondrial; remark: listed apart in the source
Description: Binding affinity to recombinant human Trap-1 by fluorescence polarization assay

Endoplasmin [12] = target: T3, Endoplasmin; experiment: Binding affinity to dog Grp94 by fluorescence polarization assay; conditions: read-out: Kd(app)
[13] = target: T1, Heat shock protein HSP90 (Homo sapiens); experiment: Binding affinity to HSP90 in human SKBR3 cell lysates at 3 nM after 8 hrs by fluorescence polarization assay; type: protein assay; conditions: SK-BR-3
[14] = target: T2, Heat shock protein HSP 90-beta; experiment: Binding affinity to HSP90beta (unknown origin)
[15] = target: T4, Heat shock protein HSP 90-alpha; experiment: Binding affinity to HSP90alpha (unknown origin)

T3 sequence (P41148 whole entry): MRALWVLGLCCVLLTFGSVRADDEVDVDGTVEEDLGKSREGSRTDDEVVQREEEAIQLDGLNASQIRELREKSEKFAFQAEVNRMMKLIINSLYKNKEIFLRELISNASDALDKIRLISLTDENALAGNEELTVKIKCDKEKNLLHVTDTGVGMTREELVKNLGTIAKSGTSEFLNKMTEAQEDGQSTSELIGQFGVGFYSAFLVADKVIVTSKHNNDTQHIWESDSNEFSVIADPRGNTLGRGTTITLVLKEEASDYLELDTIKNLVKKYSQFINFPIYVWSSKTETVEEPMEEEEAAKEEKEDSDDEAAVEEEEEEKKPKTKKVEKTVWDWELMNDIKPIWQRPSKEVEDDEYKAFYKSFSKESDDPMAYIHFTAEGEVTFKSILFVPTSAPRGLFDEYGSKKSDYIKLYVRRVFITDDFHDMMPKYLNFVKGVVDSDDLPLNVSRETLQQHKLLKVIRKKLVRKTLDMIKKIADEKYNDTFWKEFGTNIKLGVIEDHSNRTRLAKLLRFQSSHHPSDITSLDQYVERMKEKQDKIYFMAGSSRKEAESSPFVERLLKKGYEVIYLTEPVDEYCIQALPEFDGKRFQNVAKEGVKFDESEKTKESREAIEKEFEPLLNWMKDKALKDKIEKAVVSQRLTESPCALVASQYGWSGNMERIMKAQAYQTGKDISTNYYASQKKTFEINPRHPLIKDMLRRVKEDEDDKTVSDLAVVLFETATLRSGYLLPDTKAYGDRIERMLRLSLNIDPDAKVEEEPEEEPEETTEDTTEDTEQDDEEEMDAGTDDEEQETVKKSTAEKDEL
T2 sequence (P08238 whole entry): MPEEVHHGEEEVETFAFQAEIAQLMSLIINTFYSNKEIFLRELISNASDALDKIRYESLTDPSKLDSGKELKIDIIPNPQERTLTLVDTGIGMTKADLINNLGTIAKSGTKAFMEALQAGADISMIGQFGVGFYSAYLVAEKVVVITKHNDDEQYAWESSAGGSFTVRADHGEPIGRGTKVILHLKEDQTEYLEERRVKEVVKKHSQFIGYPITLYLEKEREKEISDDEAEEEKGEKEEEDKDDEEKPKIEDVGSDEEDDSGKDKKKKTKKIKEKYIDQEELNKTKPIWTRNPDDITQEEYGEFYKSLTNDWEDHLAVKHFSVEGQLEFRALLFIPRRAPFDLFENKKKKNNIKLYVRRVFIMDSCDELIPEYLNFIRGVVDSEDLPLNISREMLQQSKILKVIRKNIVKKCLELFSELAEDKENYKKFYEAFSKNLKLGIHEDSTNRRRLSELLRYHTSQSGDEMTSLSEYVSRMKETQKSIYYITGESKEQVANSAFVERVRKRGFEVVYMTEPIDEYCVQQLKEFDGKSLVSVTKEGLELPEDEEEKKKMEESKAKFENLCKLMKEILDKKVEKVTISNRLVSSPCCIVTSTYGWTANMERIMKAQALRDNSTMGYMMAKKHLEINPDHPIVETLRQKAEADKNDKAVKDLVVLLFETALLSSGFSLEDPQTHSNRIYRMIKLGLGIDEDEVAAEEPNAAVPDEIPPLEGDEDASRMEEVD
Endoplasmin (Homo sapiens), sequence (P14625 whole entry): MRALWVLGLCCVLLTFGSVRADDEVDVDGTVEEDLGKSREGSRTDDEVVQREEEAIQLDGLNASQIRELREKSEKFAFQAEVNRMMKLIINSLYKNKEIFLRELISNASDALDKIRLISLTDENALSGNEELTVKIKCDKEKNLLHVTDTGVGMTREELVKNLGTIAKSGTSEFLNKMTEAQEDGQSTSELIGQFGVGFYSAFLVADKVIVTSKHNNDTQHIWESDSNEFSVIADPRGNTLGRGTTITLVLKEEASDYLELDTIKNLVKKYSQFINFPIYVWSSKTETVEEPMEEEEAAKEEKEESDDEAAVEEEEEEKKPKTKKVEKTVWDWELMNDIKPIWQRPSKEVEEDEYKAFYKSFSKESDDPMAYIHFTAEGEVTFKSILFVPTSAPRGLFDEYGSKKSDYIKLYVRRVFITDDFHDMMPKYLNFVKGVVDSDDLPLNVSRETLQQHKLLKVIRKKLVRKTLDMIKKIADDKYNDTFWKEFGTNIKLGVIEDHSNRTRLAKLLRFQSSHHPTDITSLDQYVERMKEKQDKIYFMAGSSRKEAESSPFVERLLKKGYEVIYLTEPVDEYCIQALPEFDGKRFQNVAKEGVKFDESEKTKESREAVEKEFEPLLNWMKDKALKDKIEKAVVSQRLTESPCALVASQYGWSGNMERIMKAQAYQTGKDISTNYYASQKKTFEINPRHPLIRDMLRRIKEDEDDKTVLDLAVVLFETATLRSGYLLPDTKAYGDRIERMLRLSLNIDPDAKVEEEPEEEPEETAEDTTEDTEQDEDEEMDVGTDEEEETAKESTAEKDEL

In the case of `Nc1ncnc2c1nc(Sc1cc3c(cc1I)OCO3)n2CCCCNC(=S)Nc1ccc(-c2c3ccc(=O)cc-3oc3cc(O)ccc23)c(C(=O)O)c1`, the Activity [1] is reported as “Active”.

In the case of `Nc1ncnc2c1ncn2[C@@H]1O[C@H](COP(=O)(O)OP(=O)(O)OP(=O)(O)O)[C@@H](O)[C@H]1O` [ADENOSINE TRIPHOSPHATE], the Ratio (Homo sapiens) is reported as 10, the IC50 [2] is reported as 894 µM and the IC50 (Endoplasmin [3]) is reported as 3240 nM. The Activity [4] was 840 µM, the IC50 [5] was 861 µM and the Activity [6] was 3.4 µM. It also gave an Activity [7] of 31.3 µM and an IC50 [8] of 31.3 µM.

For `Nc1ncnc2c1nc(Sc1cc3c(cc1I)OCO3)n2CCCCCCCCNC(=S)Nc1ccc(-c2c3ccc(=O)cc-3oc3cc(O)ccc23)c(C(=O)O)c1`, the Activity [1] was “inactive”.

`CO[C@H]1/C=C\C=C(/C)C(=O)NC2=CC(=O)C(NCCCCNC(=O)Cc3ccc4c(c3)C(C)(C)C3=[N+]4CCC4OC5CCN6C(=C5C=C34)C(C)(C)c3cc(S(=O)(=O)[O-])ccc36)=C(C[C@@H](C)C[C@H](OC)[C@H](O)[C@@H](C)/C=C(\C)[C@@H]1OC(N)=O)C2=O` (stereo partly specified) showed a Kd [9] of 0.7 nM, a Kd [10] of 2.2 nM and a Kd [11] of 51.8 nM. The Kd (Endoplasmin [12]) was 2.5 nM.

With `Nc1ncnc2c1nc(Sc1cc3c(cc1I)OCO3)n2CCCNC(=S)Nc1ccc(-c2c3ccc(=O)cc-3oc3cc(O)ccc23)c(C(=O)O)c1` the Kd [9] was 1.4 nM, the Kd [10] was 1.6 nM and the Activity [13] was “Active”. The Activity [1] was “Active” and the Kd (Endoplasmin [12]) was 6.6 nM.

`CC(C)c1cc(-c2n[nH]c(=O)n2-c2ccc3c(ccn3C)c2)c(O)cc1O` [GANETESPIB] showed an IC50 (Endoplasmin [3]) of 10 nM.

In the case of `CC(C)N(CCCn1c(Sc2cc3c(cc2I)OCO3)nc2c(N)ncnc21)C(=S)Nc1ccc(-c2c3ccc(=O)cc-3oc3cc(O)ccc23)c(C(=O)O)c1`, the Kd [9] is reported as 3.9 nM, the Kd [10] is reported as 2.8 nM and the Kd [11] is reported as 5.8 nM. For the same molecule, the Activity [1] was “Active” and the Kd (Endoplasmin [12]) was 30.7 nM.

`Nc1ncnc2c1nc(Sc1cc3c(cc1I)OCO3)n2CCCCCCNC(=S)Nc1ccc(-c2c3ccc(=O)cc-3oc3cc(O)ccc23)c(C(=O)O)c1` was tested, and the Activity [1] was “Active”.

In the case of `Nc1ncnc2c1ncn2[C@@H]1O[C@H](COP(=O)(O)OP(=O)(O)O)[C@@H](O)[C@H]1O` [ADENOSINE DIPHOSPHATE], the Activity [14] is reported as 34 µM, the IC50 [2] is reported as 42.2 µM and the IC50 (Endoplasmin [3]) is reported as 11400 nM. It also gave an Activity [4] of 41 µM, an IC50 [5] of 59.3 µM and an Activity [6] of 2.3 µM. For the same molecule, the Activity [15] was 51 µM and the IC50 [8] was 55.6 µM.

`C=CCNC1=C2C[C@@H](C)C[C@H](OC)[C@H](O)[C@@H](C)/C=C(\C)[C@H](OC(N)=O)[C@@H](OC)/C=C\C=C(/C)C(=O)NC(=CC1=O)C2=O` [TANESPIMYCIN] was tested, and the IC50 (Endoplasmin [3]) was 31 nM and the IC50 [8] was 1.5 µM.
